Assay results published in ChEMBL document CHEMBL1201862, “PubChem BioAssay data set” (2004).
The source made the active and inactive calls.

Key:
[1] = viability of PTEN-deleted HCT116 cells – cell-based, HCT116 PTEN knockout, dose response (AID 1047); type: functional;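 also: HCT116 colon tumor cells with PTEN knocked out; cells exposed to compound for 60 hours before readout; potency for loss of cell viability measured by luminescence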
[2] = viability of HCT116 lacking mutant beta-catenin – cell-based, human colon tumor, dose response (AID 1045); type: functional;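 also: HCT116 colon tumor cells with beta catenin knocked out; cells exposed to compound for 60 hours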
Caspase-3 = target: T1, Caspase-3 (Homo sapiens, UniProt P42574); type: functional;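 also: Dose-response selectivity test against caspase-3 for candidate inhibitors of sentrin-specific proteases (SENPs)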
T1 sequence (P42574 whole entry): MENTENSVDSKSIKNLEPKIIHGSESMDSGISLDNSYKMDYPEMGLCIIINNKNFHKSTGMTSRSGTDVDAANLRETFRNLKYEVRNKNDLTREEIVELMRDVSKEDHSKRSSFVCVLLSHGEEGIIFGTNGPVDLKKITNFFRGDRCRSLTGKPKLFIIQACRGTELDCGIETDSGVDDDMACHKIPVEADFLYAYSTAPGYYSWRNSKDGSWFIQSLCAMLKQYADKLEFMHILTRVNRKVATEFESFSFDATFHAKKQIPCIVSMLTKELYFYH

[3] = target: T2, Sentrin-specific protease 7 (Homo sapiens, UniProt Q9BQF6); type: functional;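 also: Luminescence-based dose-response confirmation of ultra-high-throughput screening hits, measuring inhibition of SENP7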
T2 sequence (Q9BQF6 whole entry): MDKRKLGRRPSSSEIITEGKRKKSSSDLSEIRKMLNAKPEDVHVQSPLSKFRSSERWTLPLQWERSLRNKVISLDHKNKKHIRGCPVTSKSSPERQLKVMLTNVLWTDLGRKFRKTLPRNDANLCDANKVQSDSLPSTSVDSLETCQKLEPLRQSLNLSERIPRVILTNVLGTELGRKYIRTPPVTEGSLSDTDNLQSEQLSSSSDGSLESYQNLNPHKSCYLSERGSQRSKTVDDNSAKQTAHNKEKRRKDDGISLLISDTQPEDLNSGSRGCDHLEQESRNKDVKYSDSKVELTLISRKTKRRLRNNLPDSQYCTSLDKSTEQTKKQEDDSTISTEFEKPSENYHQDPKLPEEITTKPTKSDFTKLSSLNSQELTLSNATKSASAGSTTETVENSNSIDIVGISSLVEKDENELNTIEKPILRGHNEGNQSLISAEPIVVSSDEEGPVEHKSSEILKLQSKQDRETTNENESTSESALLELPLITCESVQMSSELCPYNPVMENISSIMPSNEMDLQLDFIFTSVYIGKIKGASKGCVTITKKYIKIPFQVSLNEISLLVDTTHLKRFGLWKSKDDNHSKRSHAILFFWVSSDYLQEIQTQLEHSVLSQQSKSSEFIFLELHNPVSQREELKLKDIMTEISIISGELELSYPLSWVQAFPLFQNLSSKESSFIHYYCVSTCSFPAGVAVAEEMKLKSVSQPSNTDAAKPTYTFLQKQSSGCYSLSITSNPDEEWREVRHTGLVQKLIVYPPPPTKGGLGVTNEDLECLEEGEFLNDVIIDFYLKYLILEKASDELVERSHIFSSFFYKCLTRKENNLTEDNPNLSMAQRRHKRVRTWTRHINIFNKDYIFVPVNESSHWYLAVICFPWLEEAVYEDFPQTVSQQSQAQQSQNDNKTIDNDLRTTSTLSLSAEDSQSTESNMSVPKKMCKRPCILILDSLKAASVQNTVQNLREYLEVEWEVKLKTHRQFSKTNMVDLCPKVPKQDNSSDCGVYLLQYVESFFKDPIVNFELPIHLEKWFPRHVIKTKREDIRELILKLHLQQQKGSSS

[4] = target: T3, Sentrin-specific protease 6 (Homo sapiens, UniProt Q9GZR1); type: functional;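 also: Luminescence-based dose-response confirmatory assay of SENP6 inhibition, following up an ultra-high-throughput screen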
T3 sequence (Q9GZR1 whole entry): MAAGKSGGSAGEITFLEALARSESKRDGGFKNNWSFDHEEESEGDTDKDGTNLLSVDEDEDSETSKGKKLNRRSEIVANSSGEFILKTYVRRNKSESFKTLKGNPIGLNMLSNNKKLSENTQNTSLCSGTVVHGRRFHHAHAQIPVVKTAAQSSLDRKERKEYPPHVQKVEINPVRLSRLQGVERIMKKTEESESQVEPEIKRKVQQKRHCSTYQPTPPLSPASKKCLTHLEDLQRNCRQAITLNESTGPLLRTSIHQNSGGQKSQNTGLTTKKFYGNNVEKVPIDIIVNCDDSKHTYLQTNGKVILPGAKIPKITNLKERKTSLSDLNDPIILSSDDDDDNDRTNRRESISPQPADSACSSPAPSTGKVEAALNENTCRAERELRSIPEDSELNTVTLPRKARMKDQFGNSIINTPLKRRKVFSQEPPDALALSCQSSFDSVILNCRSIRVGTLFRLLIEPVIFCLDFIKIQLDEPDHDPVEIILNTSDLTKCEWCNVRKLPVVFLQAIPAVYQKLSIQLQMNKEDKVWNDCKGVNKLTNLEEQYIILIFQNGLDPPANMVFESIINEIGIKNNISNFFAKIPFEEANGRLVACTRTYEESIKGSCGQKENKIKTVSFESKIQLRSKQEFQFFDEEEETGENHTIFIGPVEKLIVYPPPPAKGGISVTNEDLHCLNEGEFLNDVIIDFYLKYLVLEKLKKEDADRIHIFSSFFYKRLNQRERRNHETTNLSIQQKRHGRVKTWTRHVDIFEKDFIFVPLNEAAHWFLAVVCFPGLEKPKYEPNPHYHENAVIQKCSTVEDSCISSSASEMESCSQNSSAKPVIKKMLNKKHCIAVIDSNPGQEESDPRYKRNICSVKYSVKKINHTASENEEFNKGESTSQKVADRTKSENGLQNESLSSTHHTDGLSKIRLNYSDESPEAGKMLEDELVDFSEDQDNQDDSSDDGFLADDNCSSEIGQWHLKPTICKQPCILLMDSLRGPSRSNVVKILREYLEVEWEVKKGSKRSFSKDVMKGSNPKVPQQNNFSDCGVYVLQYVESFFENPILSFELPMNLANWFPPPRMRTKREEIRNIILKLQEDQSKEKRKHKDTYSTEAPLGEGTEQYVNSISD

[5] = target: T4, Sentrin-specific protease 8 (Homo sapiens, UniProt Q96LD8); type: functional;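 also: luminescence read-out of SENP8 inhibition, dose-response confirmation following an ultra-high-throughput screen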
T4 sequence (Q96LD8 whole entry): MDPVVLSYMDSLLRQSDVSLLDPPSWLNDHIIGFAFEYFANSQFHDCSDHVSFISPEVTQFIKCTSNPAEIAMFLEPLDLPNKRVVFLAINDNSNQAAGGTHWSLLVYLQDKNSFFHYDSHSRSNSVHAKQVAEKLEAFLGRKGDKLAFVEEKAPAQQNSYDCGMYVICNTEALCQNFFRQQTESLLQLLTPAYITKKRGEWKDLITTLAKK

Protein skinhead-1 = target: T5, Protein skinhead-1 (Caenorhabditis elegans, UniProt P34707); type: functional
T5 sequence (P34707 whole entry): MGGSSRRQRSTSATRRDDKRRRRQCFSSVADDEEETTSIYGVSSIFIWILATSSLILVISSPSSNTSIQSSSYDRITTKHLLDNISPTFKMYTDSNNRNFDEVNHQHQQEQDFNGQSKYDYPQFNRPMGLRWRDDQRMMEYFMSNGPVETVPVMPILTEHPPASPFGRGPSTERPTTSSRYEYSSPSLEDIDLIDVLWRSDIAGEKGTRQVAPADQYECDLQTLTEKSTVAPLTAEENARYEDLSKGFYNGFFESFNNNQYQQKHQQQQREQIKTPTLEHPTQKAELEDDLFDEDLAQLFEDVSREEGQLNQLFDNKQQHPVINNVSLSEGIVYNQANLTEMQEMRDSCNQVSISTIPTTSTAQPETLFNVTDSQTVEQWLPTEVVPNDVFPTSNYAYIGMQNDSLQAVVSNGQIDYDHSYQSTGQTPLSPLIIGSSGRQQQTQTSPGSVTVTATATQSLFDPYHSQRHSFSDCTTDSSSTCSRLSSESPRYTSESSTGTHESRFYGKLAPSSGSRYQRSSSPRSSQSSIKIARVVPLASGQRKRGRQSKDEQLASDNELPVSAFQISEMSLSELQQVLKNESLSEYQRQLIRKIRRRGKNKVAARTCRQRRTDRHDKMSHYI

P388/ADR = assay: cells; type: functional; settings: Mus musculus
SN12K1 = assay: cells; type: functional; settings: Homo sapiens
P388 = assay: cells; type: functional; settings: Mus musculus
[6] = A549 cell cytotoxicity, dose response, cytotoxicity control, plate reader, cherry-pick, antagonist series (AID 743412); type: functional, cell-based
[7] = toxicity toward HepG2 liver cells – cell-based, plate reader, cherry-pick, antagonist series, cytotoxicity control, dose response (AID 743416); type: functional
[8] = blockers of HIV-1 envelope-mediated cell-cell fusion – cherry-pick, dose response (AID 652057); type: functional, cell-based
[9] = HIV-1 AD8 envelope cell-cell fusion blockers – cherry-pick, dose response (AID 652062); type: functional, cell-based;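 also: luciferase signal from cell-cell fusion driven by HIV-1 clade B AD8 Env; potency is for inhibitors of fusion seen as a drop in luminescence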
[10] = viability of uninfected HEp-2 cells – cell-based, HTS, cytotoxicity control for RSV inhibitor project, dose response (AID 2410); type: functional; settings: human respiratory syncytial virus

COc1ccc(/C(O)=C/c2nc3ccc(C(=O)NCCc4cccc(C)c4)cc3nc2O)cc1OC
EC50 [1]: 6.66 µM (active) | EC50 [2]: 5.65 µM (active)

O=C(Cn1cc(SCc2ccc(Cl)cc2)c2ccccc21)N1CCOCC1
IC50 (Caspase-3): 27.1 µM (active) | IC50 [3]: 6.14 µM (active) | IC50 [4]: 10.3 µM (active) | IC50 [5]: > 100 µM (inactive)

Cc1cccc(OCc2cc(-c3ccccc3)no2)c1C
IC50 (Caspase-3): 26.6 µM (active) | IC50 [3]: 5.47 µM (active) | IC50 [4]: 20.1 µM (active) | IC50 [5]: 42.8 µM (active)

O=C(COc1ccc(Cc2ccccc2)cc1)c1ccc(F)cc1
IC50 (Caspase-3): 39.9 µM (active) | IC50 [3]: 15.6 µM (active) | IC50 [4]: 69.3 µM (active) | IC50 [5]: > 100 µM (inactive)

Cc1c(Cl)cccc1N/C(SCC(=O)N1CCCCCC1)=C(/C#N)c1nc2ccccc2s1
EC50 [1]: 4.06 µM (active) | EC50 [2]: 4.02 µM (active)

O=C(NC(=S)Nc1ccc(NC(=O)c2cccs2)cc1)c1cc2ccccc2o1
EC50 [1]: 15.5 µM (active) | EC50 [2]: 22.6 µM (active)

Cc1ccccc1-c1nnc(-c2ccccc2C)o1
IC50 (Caspase-3): 20.5 µM (active) | IC50 [3]: 12.1 µM (active) | IC50 [4]: 6.65 µM (active) | IC50 [5]: 95.5 µM (active) | IC50 (Protein skinhead-1): > 100 µM (inactive)

CCCCCCCCCCCCCCCCOCC(COP(=O)([O-])OCC[N+](C)(C)C)OCCCCCCCCCCCCCCCC (stereo not given)
GI50 (P388/ADR): > 100 µM (inactive) | GI50 (SN12K1): > 100 µM (inactive) | GI50 (P388): > 100 µM (inactive)

CN(c1ccccc1)c1c(-c2ccccc2)c(=O)oc2c1ccc1occc12
GI50 (P388/ADR): 74.6 µM (inactive) | GI50 (SN12K1): > 100 µM (inactive) | GI50 (P388): 37.8 µM (inactive)

COc1cc2c(cc1Oc1c(Oc3c(O)c(OC)cc4c3C(CC(C)C)N(C)CC4)c(OC)cc3c1C(CC(C)C)N(C)CC3)C(CC(C)C)N(C)CC2 (stereo not given)
GI50 (P388/ADR): 0.706 µM (active) | GI50 (SN12K1): 0.794 µM (active) | GI50 (P388): 0.279 µM (active)

CCN(CC)c1c(C)c(C(=O)OC)nn1-c1ccccc1
GI50 (P388/ADR): 31.6 µM (inactive) | GI50 (SN12K1): > 100 µM (inactive) | GI50 (P388): 34.8 µM (inactive)

COc1ccccc1CN(C)C[C@@H]1OCc2cnnn2CCCC(=O)N([C@H](C)CO)C[C@H]1C
AC50 [6]: > 52 µM (inactive) | AC50 [7]: 39.8 µM (active)

COc1cccc(S(=O)(=O)N(C)C[C@H]2Oc3cc(C4=CCCC4)ccc3S(=O)(=O)N([C@H](C)CO)C[C@H]2C)c1
AC50 [8]: 3.31 µM (active) | AC50 [9]: 3.77 µM (active)

Cc1cccnc1Nc1nc(-c2ccc(O)cc2O)cs1
CC50 [10]: 27 µM (active) | IC50 (Caspase-3): 41.8 µM (active) | IC50 [3]: 3.79 µM (active) | IC50 [4]: 8 µM (active) | IC50 [5]: 15.5 µM (active)

C=C1CC(OC)(C(O)C(=O)N[C@H]2OCO[C@H]3C2O[C@H](C[C@@H](CO)OC)C(C)(C)C3OC)O[C@H](C)[C@@H]1C (stereo not given in full)
GI50 (P388/ADR): < 0.00931 µM (active) | GI50 (SN12K1): < 0.00931 µM (active) | GI50 (P388): < 0.00931 µM (active)

O=C1C(=O)c2cc([N+](=O)[O-])ccc2-c2ccc([N+](=O)[O-])cc21
GI50 (P388/ADR): 0.292 µM (active) | GI50 (SN12K1): 0.29 µM (active) | GI50 (P388): 0.201 µM (active)

O=C(N/N=C/c1cccs1)c1cccc(NC(=O)c2ccc(Cl)cc2)c1
EC50 [1]: 61.1 µM (active) | EC50 [2]: 55.4 µM (active)

O=C1c2ccccc2-c2nnc(-c3ccc(F)cc3)cc21
IC50 (Caspase-3): 2.59 µM (active) | IC50 [3]: 1.9 µM (active) | IC50 [4]: 2.5 µM (active) | IC50 [5]: 3.58 µM (active)

COc1ccc2c(c1[N+](=O)[O-])CC[C@@H]1[C@@H]2CC[C@]2(C)C(=O)CC[C@@H]12
GI50 (P388/ADR): 20.9 µM (inactive) | GI50 (SN12K1): > 25 µM (inactive) | GI50 (P388): > 25 µM (inactive)

Nc1c(C(=O)Nc2ccc(C3=NCCN3)cc2)cccc1C(=O)Nc1ccc(C2=NCCN2)cc1
GI50 (P388/ADR): > 100 µM (inactive) | GI50 (SN12K1): > 100 µM (inactive) | GI50 (P388): 12.5 µM (inactive)

Oc1ncc(N(CCCl)CCCl)c(O)n1 [URACIL MUSTARD]
GI50 (P388/ADR): 1.77 µM (inactive) | GI50 (SN12K1): 17.4 µM (inactive) | GI50 (P388): 1.26 µM (inactive)
